From patent US7268152B2, “Glucocorticoid mimetics, methods of making them, pharmaceutical compositions, and uses thereof” (Boehringer Ingelheim Pharmaceuticals, Inc., priority 2002, dated 2007)

Test system: glucocorticoid receptor
Test: One or more of the above assays (GR binding and GR cell assays; not specified which)
Format: cell-based
Details: in one or more of the above assays
Experimental: This assay uses fluorescence polarization (FP) to quantitate the ability of test compounds to compete with tetramethyl rhodamine (TAMRA)-labeled dexamethasone for binding to a human glucocorticoid receptor (GR) complex prepared from an insect expression system. The assay buffer was: 10 mM TES, 50 mM KCl, 20 mM Na2MoO4.2H2O, 1.5 mM EDTA, 0.04% w/v CHAPS, 10% v/v glycerol, 1 mM dithiothreitol, pH 7.4. Test compounds were dissolved to 1 mM in neat DMSO and then further diluted to 10×assay concentration in assay buffer supplemented with 10% v/v DMSO. Test compounds were serially diluted at 10×assay concentrations in 10% DMSO-containing buffer in 96-well polypropylene plates. […] Positive controls were reaction mixtures containing no test compound; negative controls (blanks) were reaction mixtures containing 0.7 μM to 2 μM dexamethasone. […] IC50 values were determined by iterative non-linear curve fitting of the FP signal data to a 4-parameter logistic equation.
B. Glucocorticoid Receptor Cell Assays
1. Induction of Aromatase in Fibroblasts (Cell Assay for Transactivation)
Dexamethasone, a synthetic ligand to the glucocorticoid receptor (GR), induces expression of aromatase in human foreskin fibroblast cells. The activity of aromatase is measured by the conversion of testosterone to estradiol in culture media.
On the day of the experiment, the media in the wells is replaced with fresh media. Cells are treated with test compounds to final concentrations of 10^−5 M to 10 ^−8 M, and testosterone to a final concentration of 300 ng/mL. Each well has a total volume of 100 μL. Samples are made in duplicates. Control wells include: (a) wells that receive testosterone only, and (b) wells that receive testosterone plus 2 μM of dexamethasone to provide maximum induction of aromatase. Plates are incubated at 37° C. overnight (15 to 18 hours), and supernatants are harvested at the end of incubation. […] The amount of estradiol is inversely proportional to the ELISA signals in each well. The extent of aromatase induction by test compounds is expressed as a relative percentage to dexamethasone. EC50 values of test compounds are derived by non-linear curve fitting.
2. Inhibition of IL-6 Production in Fibroblasts (Cell Assay for Transrepression)
Human foreskin fibroblast cells produce IL-6 in response to stimulation by pro-inflammatory cytokine IL-1.
On the next day, media in the wells is replaced with fresh media. Cells are treated with IL-1 (rhIL-1α, R&D Systems Cat. No. 200-LA) to a final concentration of 1 ng/mL, and with test compounds to final concentrations of 10 ^−5 M to 10 ^−8 M, in a total volume of 200 μL per well. Samples are done in duplicates. […] Positive control wells receive IL-1 only and represent maximum (or 100%) amount of IL-6 production. Plates are incubated at 37° C. overnight (15 to 18 hours), and supernatants are harvested at the end of incubation. IL-6 levels in the supernatants are determined by the ELISA kits for IL-6 (MedSystems Diagnostics GmbH, Vienna, Austria, Cat. No. BMS213TEN) according to manufacture's instructions. The extent of inhibition of IL-6 by test compounds is expressed in percentage relative to positive controls. IC50 values of test compounds are derived by non-linear curve fitting.
Evaluation of agonist or antagonist activity of compounds binding to the glucocorticoid receptor may be determined by any of the assays.
3. Modulation of Tyrosine Aminotransferase (TAT) Induction in Rat Hepatoma Cells
Testing of compounds for agonist or antagonist activity in induction of tyrosine aminotransferase (TAT) in rat hepatoma cells.
H4-II-E-C3 cells were incubated overnight in 96 well plates (20,000 cells/100 μL/well) in MEM medium containing 10% heat inactivated FBS and 1% nonessential amino acids. On the next day, cells were stimulated with the indicated concentrations of dexamethasone or test compound (dissolved in DMSO, final DMSO concentration 0.2%) for 18 hours. Control cells were treated with 0.2% DMSO.

SMILES | activity as agonists of the glucocorticoid receptor function
Cc1cccc(C(C)(C)CC(O)(Cc2ccc(C#N)cc2Cl)C(F)(F)F)c1 (centres unmarked) [3-Chloro-4-(2-hydroxy-4-methyl-4-m-tolyl-2-trifluoromethylpentyl)benzonitrile] | activity as agonists
COc1ccc(F)cc1C(C)(C)CC(O)(Cc1ccc(/C(C)=N/O)cc1Cl)C(F)(F)F (centres unmarked) [1-{3-Chloro-4-[4-(5-fluoro-2-methoxyphenyl)-2-hydroxy-4-methyl-2-trifluoromethylpentyl]phenyl}ethanone oxime] | activity as agonists
COc1ccc(F)cc1C(C)(C)CC(O)(Cc1cc(C)cc(C)c1C#N)C(F)(F)F (centres unmarked) [2-[4-(5-Fluoro-2-methoxyphenyl)-2-hydroxy-4-methyl-2-trifluoromethylpentyl]-4,6-dimethylbenzonitrile] | activity as agonists
COc1ccc(F)cc1C(C)(C)CC(O)(Cc1ccc(C#N)c2ccccc12)C(F)(F)F (centres unmarked) [4-[4-(5-Fluoro-2-methoxyphenyl)-2-hydroxy-4-methyl-2-trifluoromethylpentyl]naphthalene-1-carbonitrile] | activity as agonists
CC(C)(CC(O)(Cc1ccc(C#N)c2ccccc12)C(F)(F)F)c1cccc2c1OCC2 (centres unmarked) [4-[4-(2,3-Dihydrobenzofuran-7-yl)-2-hydroxy-4-methyl-2-trifluoromethylpentyl]naphthalene-1-carbonitrile] | activity as agonists
COc1c(C(C)(C)CC(O)(Cc2ccc(C#N)cc2Cl)C(F)(F)F)ccc2ccccc12 (centres unmarked) [3-Chloro-4-[2-hydroxy-4-(1-methoxynaphthalen-2-yl)-4-methyl-2-trifluoromethylpentyl]benzonitrile] | activity as agonists
CC(C)(CC(O)(Cc1ccc(C#N)cc1Cl)C(F)(F)F)c1ccc(C(F)(F)F)cc1 (centres unmarked) [3-Chloro-4-[2-hydroxy-4-methyl-2-trifluoromethyl-4-(4-trifluoromethylphenyl)pentyl]benzonitrile] | activity as agonists
CC(C)(CC(O)(Cc1cc(C(F)(F)F)cc(Cl)c1F)C(F)(F)F)c1cc([N+](=O)[O-])cc2c1OCC2 (centres unmarked) [2-(3-Chloro-2-fluoro-5-trifluoromethylbenzyl)-1,1,1-trifluoro-4-methyl-4-(5-nitro-2,3-dihydrobenzofuran-7-yl)pentan-2-ol] | activity as agonists
Cc1ccc(C(C)(C)CC(O)(Cc2ccc(C#N)cc2Cl)C(F)(F)F)cc1 (centres unmarked) [3-Chloro-4-(2-hydroxy-4-methyl-4-p-tolyl-2-trifluoromethylpentyl)benzonitrile] | activity as agonists
CC(C)(CC(O)(Cc1ccc(C#N)cc1Cl)C(F)(F)F)c1ccc(F)cc1O (centres unmarked) [3-Chloro-4-[4-(4-fluoro-2-hydroxyphenyl)-2-hydroxy-4-methyl-2-trifluoromethylpentyl]benzonitrile] | activity as agonists
Cc1ccccc1C(C)(C)CC(O)(Cc1ccc(C#N)cc1Cl)C(F)(F)F (centres unmarked) [3-Chloro-4-(2-hydroxy-4-methyl-4-o-tolyl-2-trifluoromethylpentyl)benzonitrile] | activity as agonists
CC(C)(CC(O)(Cc1ccc(C#N)cc1Cl)C(F)(F)F)c1cccc(F)c1 (centres unmarked) [3-Chloro-4-[4-(3-fluorophenyl)-2-hydroxy-4-methyl-2-trifluoromethylpentyl]benzonitrile] | activity as agonists
COc1cc(OC)cc(C(C)(C)CC(O)(Cc2ccc(C#N)cc2Cl)C(F)(F)F)c1 (centres unmarked) [3-Chloro-4-[4-(3,5-dimethoxyphenyl)-2-hydroxy-4-methyl-2-trifluoromethylpentyl]benzonitrile] | activity as agonists
CC(C)(CC(O)(Cc1ccc(C#N)cc1Cl)C(F)(F)F)c1cc(F)ccc1O (centres unmarked) [3-Chloro-4-[4-(5-fluoro-2-hydroxyphenyl)-2-hydroxy-4-methyl-2-trifluoromethylpentyl]benzonitrile] | activity as agonists
CC(C)(CC(O)(Cc1cc(C(F)(F)F)cc(Cl)c1F)C(F)(F)F)c1cc(Br)cc2c1OCC2 (centres unmarked) [4-(5-Bromo-2,3-dihydrobenzofuran-7-yl)-2-(3-chloro-2-fluoro-5-trifluoromethylbenzyl)-1,1,1-trifluoro-4-methylpentan-2-ol] | activity as agonists
CCc1cccc(C(C)(C)CC(O)(Cc2ccc(C#N)cc2Cl)C(F)(F)F)c1O (centres unmarked) [3-Chloro-4-[4-(3-ethyl-2-hydroxyphenyl)-2-hydroxy-4-methyl-2-trifluoromethylpentyl]benzonitrile] | activity as agonists
COc1ccc(F)cc1C(C)(C)CC(O)(Cc1cc(C)c(C#N)c(C)c1)C(F)(F)F (centres unmarked) [4-[4-(5-Fluoro-2-methoxyphenyl)-2-hydroxy-4-methyl-2-trifluoromethylpentyl]-2,6-dimethylbenzonitrile] | activity as agonists
Cc1cccc(C(C)(C)CC(O)(Cc2ccc(C#N)cc2Cl)C2CC2)c1 (centres unmarked) [3-Chloro-4-[2-cyclopropyl-2-hydroxy-4-methyl-4-(3-methylphenyl)pentyl]benzonitrile] | activity as agonists
COc1ccc(F)cc1C(C)(C)CC(O)(Cc1ccc(C=O)cc1Cl)C(F)(F)F (centres unmarked) [3-Chloro-4-[4-(5-fluoro-2-methoxyphenyl)-2-hydroxy-4-methyl-2-trifluoromethylpentyl]benzaldehyde] | activity as agonists
CC(C)(CC(O)(Cc1ccc(C(=O)C2CC2)cc1Cl)C1CC1)c1cccc2c1OCC2 (centres unmarked) [{3-Chloro-4-[2-cyclopropyl-4-(2,3-dihydrobenzofuran-7-yl)-2-hydroxy-4-methylpentyl]phenyl}cyclopropylmethanone] | activity as agonists
CC(C)(CC(O)(Cc1ccc(C#N)cc1Cl)C(F)(F)F)c1cc(Br)cc2c1OCC2 (centres unmarked) [4-[4-(5-Bromo-2,3-dihydrobenzofuran-7-yl)-2-hydroxy-4-methyl-2-trifluoromethylpentyl]-3-chlorobenzonitrile] | activity as agonists
COc1cc(F)ccc1C(C)(C)CC(O)(Cc1ccc(C#N)cc1Cl)C(F)(F)F (centres unmarked) [3-Chloro-4-[4-(4-fluoro-2-methoxyphenyl)-2-hydroxy-4-methyl-2-trifluoromethylpentyl]benzonitrile] | activity as agonists
CC(C)(CC(O)(Cc1ccc(C#N)cc1Cl)C(F)(F)F)c1cc(F)cc2c1OCC2 (centres unmarked) [3-Chloro-4-[4-(5-fluoro-2,3-dihydrobenzofuran-7-yl)-2-hydroxy-4-methyl-2-trifluoromethylpentyl]benzonitrile] | activity as agonists
N#Cc1ccc(CC(O)(CC2(c3cc(F)ccc3O)CC2)C(F)(F)F)c(Cl)c1 (centres unmarked) [3-Chloro-4-{3,3,3-trifluoro-2-[1-(5-fluoro-2-hydroxyphenyl)cyclopropylmethyl]-2-hydroxypropyl}benzonitrile] | activity as agonists
COc1ccc(F)cc1C(C)(C)CC(O)(Cc1cc(Cl)cc(Cl)c1Cl)C(F)(F)F (centres unmarked) [1,1,1-Trifluoro-4-(5-fluoro-2-methoxyphenyl)-4-methyl-2-(2,3,5-trichlorobenzyl)pentan-2-ol] | activity as agonists
N#Cc1ccc(CC(O)(CC2(c3cc(F)ccc3Cl)CCC2)C(F)(F)F)c(Cl)c1 (centres unmarked) [3-Chloro-4-{2-[1-(2-chloro-5-fluorophenyl)cyclobutylmethyl]-3,3,3-trifluoro-2-hydroxypropyl}benzonitrile] | activity as agonists
